These are literature values, as cited in patent US20090142809A1, “Method for Cleaving Cervimycin Monoesters” (LEIBNIZ-INSTITUT FÜR NATURSTOFF-FORSCHUNG UND INFE, priority 2005, published 2009).

For data set [1], the system named is multiresistant staphylococci. The conditions noted are these: statement in words in the background section.
Data set [2] deals with vancomycin-resistant Enterococcus faecalis. The note with it: statement in words in the background section.

Turning to `COC1=CC(=O)c2c(cc3c(c2O)C(=O)[C@@]2(O[C@H]4CC[C@H](O[C@H]5CC[C@H](O)[C@@H](C)O5)[C@@H](C)O4)C(O)=C(C(N)=O)C(=O)[C@H](O[C@H]4CC[C@H](O[C@H]5CC[C@H](O[C@H]6CC[C@H](O[C@H]7CC[C@H](O)[C@H](C)O7)[C@H](C)O6)[C@H](C)O5)[C@@H](C)O4)[C@H]2C3)C1=O` [cervimycin K], the “activity against multiresistant staphylococci” value in data set [1] was “extremely strong activity”. Also, the “activity against the vancomycin-resistant Enterococcus faecalis” value in data set [2] is reported as “extremely strong activity”.
